Experimental data reported in PMC8268887, “Peptide/β-Peptoid Hybrids with Ultrashort PEG-Like Moieties: Effects on Hydrophobicity, Antibacterial Activity and Hemolytic Properties” (International Journal of Molecular Sciences, 2021).
In brackets after ≈: the same amount, converted by molar mass.

Assays:
S. aureus ATCC 29213 = type: cell-based, Staphylococcus aureus; conditions: ATCC 29213, 20 h
Outline: (§1)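 Broth microdilution in Mueller-Hinton broth with Mg2+ and Ca2+ at 4 mg/L each, inoculum ~5 × 10^5 CFU/mL. Compounds diluted in 0.01% acetic acid, 0.2% BSA (final) using low-binding plastics; MIC read after 20 h at 35 °C (±2 °C) with shaking at 180 rpm.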

[1] = Hydrophobicity by retention in analytical RP-HPLC (% MeCN at peak elution); type: physicochemical; conditions: for % MeCN at Elution, Aeris Peptide: Phenomenex Aeris Peptide XB-C18 column; for % MeCN at Elution, Aeris Peptide / % MeCN at Elution, Luna Omega / % MeCN at Elution, Supelco Discovery: gradient 0→60% B during 15 min; for % MeCN at Elution, Luna: Phenomenex Luna C18(2) column, RP-HPLC gradient 0→60% B during 15 min, relative hydrophobicity; for % MeCN at Elution, Luna Omega: Phenomenex Luna Omega Polar C18 column; for % MeCN at Elution, Supelco Discovery: Supelco Discovery BIO Wide pore C18 column
Outline: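 Retention times measured on four C18 columns (Luna C18(2), Luna Omega Polar C18, Aeris Peptide XB-C18, Discovery BIO Wide pore) with MeCN–H2O/0.1% TFA, linear 0–60% B over 15 min, 0.8 mL/min, UV 220 nm. % MeCN at elution = 0.95(0.6Rt/15 min)+0.05(1−0.6Rt/15 min).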

[2] = Estimation of log D values (n-octanol/PBS pH 7.4, LC-MS, log Dmax from LOQ); type: physicochemical; conditions: n-octanol/PBS pH 7.4, 25 °C; indicative threshold from LOQ in octanol phase
Protocol: A phosphate buffered saline (PBS) pH 7.4 was prepared and then saturated with n-octanol. Likewise, an n-octanol solution saturated with pH 7.4 PBS buffer was also prepared. Both solutions were shaken for 24 h, and then left for 24 h in a separating funnel to ensure complete separation of the two phases. This provided an aqueous phase (PBS buffer saturated with n-octanol) and an n-octanol phase (saturated with PBS buffer).
Samples for log D determination were prepared as following: All compounds were dissolved in PBS buffer at a concentration 4 mg/mL, which was used as stock solutions. PBS-saturated n-octanol (1.0 mL), n-octanol-saturated PBS (0.76 mL) and sample stock solution (0.24 mL) were placed into a 4-mL clear glass vial and incubated on Biosan Thermo Shaker TS-100 at 1000 rpm and 25 °C. For optimization of the assay, the incubation time was varied from 5 h to 48 h. […] After incubation samples were centrifugated and left for 30 min to ensure complete separation of the phases. The distribution coefficient was determined by quantification of the compounds both in the aqueous and n-octanol phases. Then, 100 µL of each phase were transferred to 1.5 mL champagne glass vial and evaporated using a GeneVac EZ-2 PLUS evaporation instrument. Before LC-MS analysis samples were diluted with 200 µL MeCN–0.1% aqueous formic acid (1:1, v/v).
LC-MS was performed on Acquity UPLC chromatograph coupled with a MICROMASS QUATTRO micro^TM API tandem mass spectrometer. The mass spectrometer was operated in positive electrospray ionisation mode. Parameter settings were as follows: desolvation gas (N2) flow was 600 L/h; desolvation gas temperature was 400 °C; capillary voltage, 3.30 kV; ion source temperature was 120 °C. Initial data acquisition was carried out in full-scan mode to select the most abundant ions of the individual compounds.
Waters Acquity UPLC column BEH C18 (2.1 × 50 mm, 1.7 µm particle size) was applied for analysis. Acetonitrile and 0.1% aqueous formic acid mixtures were used as mobile phase at a flow rate of 0.4 mL/min with the following gradient: 0.0–2.5 min 5–98% MeCN, 2.5–3.5 min 98% MeCN. Injection volume was 2 µL.
Limit of quantitation (LOQ) was determined using S/N ratio for each compound and used for log Dmax calculations according to the following equation:(2) log Dmax = log (theoretical peak area of n-octanol phase at LOQ concentration/peak area of buffer base) Theoretical peak area at LOQ was calculated according to the calibration curve for each compound.

E. coli ATCC 25922 = type: cell-based, Escherichia coli; conditions: ATCC 25922, 20 h
Outline: as §1

E. coli NMI 3371/16 = type: cell-based, Escherichia coli; conditions: NMI 3371/16, 20 h
Outline: as §1

E. coli NMI 3898/15 = type: cell-based, Escherichia coli; conditions: NMI 3898/15, 20 h
Outline: as §1

K. pneumoniae ATCC 13883 = type: cell-based; conditions: ATCC 13883, 20 h
Outline: as §1

E. faecalis ATCC 29212 = type: cell-based; conditions: ATCC 29212, 20 h
Outline: as §1

| Structure (SMILES) | MIC, SA (S. aureus ATCC 29213) | % MeCN at Elution, Aeris Peptide [1] | % MeCN at Elution, Luna [1] | % MeCN at Elution, Luna Omega [1] | % MeCN at Elution, Supelco Discovery [1] | log Dmax [2] | MIC, EC (E. coli ATCC 25922) | MIC, E. coli NMI 3371/16 (E. coli NMI 3371/16) | MIC, E. coli NMI 3898/15 (E. coli NMI 3898/15) | MIC, KP (K. pneumoniae ATCC 13883) | MIC, EF (E. faecalis ATCC 29212) | MIC against E. coli (E. coli ATCC 25922) |
| --- | --- | --- | --- | --- | --- | --- | --- | --- | --- | --- | --- | --- |
| NCCCC[C@H](NC(=O)CCN(Cc1ccc(F)cc1)C(=O)[C@H](CCCCN)NC(=O)CCN(Cc1ccc(F)cc1)C(=O)[C@H](CCCCN)NC(=O)COCCOCCN)C(=O)N(CCC(=O)NCCOCCOCC(=O)N[C@@H](CCCCN)C(=O)N(CCC(=O)N[C@@H](CCCCN)C(=O)N(CCC(=O)N[C@@H](CCCCN)C(=O)N(CCC(=O)NCCOCCOCC(N)=O)Cc1ccc(F)cc1)Cc1ccc(F)cc1)Cc1ccc(F)cc1)Cc1ccc(F)cc1 [Compound 12, H-sPEG2-[X]3-sPEG2-[X]3-sPEG2-NH2] | >64 µg/mL | 39.2 % MeCN | 41.3 % MeCN | 42.0 % MeCN | 41.3 % MeCN | < −3.147 | 8 to 16 µg/mL | 8 µg/mL (≈ 3.48 µM) | 16 µg/mL (≈ 6.97 µM) | >64 µg/mL | >64 µg/mL | – |
| NCCCC[C@H](NC(=O)CCN(Cc1ccc(F)cc1)C(=O)[C@H](CCCCN)NC(=O)COCCOCCNC(=O)CCN(Cc1ccc(F)cc1)C(=O)[C@H](CCCCN)NC(=O)CCN(Cc1ccc(F)cc1)C(=O)[C@H](CCCCN)NC(=O)COCCOCCNC(=O)CCN(Cc1ccc(F)cc1)C(=O)[C@H](CCCCN)NC(=O)CCN(Cc1ccc(F)cc1)C(=O)[C@@H](N)CCCCN)C(=O)N(CCC(N)=O)Cc1ccc(F)cc1 [Compound 16, H-[X]2-sPEG2-[X]2-sPEG2-[X]2-NH2] | 32 to 64 µg/mL | 39.4 % MeCN | 41.5 % MeCN | 41.9 % MeCN | 41.6 % MeCN | < −3.922 | 2 to 4 µg/mL | 4 µg/mL (≈ 1.86 µM) | 8 µg/mL (≈ 3.72 µM) | 64 µg/mL (≈ 29.7 µM) | >64 µg/mL | 0.7 to 1.4 µM |
